Columns and labels:
FXR = biological target: T1, FXR (Homo sapiens, UniProt Q96RI1); assay: Selectivity: nuclear hormone receptor FXR
T1 sequence (Q96RI1 1-486): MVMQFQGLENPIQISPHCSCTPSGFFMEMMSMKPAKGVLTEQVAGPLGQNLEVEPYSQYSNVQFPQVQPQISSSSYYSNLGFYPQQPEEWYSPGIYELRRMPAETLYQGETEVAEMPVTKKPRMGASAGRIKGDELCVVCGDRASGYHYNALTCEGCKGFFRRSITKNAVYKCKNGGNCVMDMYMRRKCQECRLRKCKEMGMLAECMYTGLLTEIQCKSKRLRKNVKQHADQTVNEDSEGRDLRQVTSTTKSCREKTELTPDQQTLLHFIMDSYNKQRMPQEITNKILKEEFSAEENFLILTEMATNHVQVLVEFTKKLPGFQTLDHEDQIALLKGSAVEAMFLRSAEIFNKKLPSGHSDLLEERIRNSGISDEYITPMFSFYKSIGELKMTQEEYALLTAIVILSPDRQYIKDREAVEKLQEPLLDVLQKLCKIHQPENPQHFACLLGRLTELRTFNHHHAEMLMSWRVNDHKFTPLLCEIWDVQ

DIO C57BL/6 mice = assay: Body weight, food intake and body composition in DIO mice over two weeks; assay type: in vivo, mouse; settings: 60 mg/kg oral once a day
Procedure: Body composition of mice was determined using Quantitative Nuclear Magnetic Resonance analysis (ECHO MRI, 3–1 Composition Analyzer; Echo Medical Systems, Houston, TX). DIO mice were randomized by body weight and fat mass prior to administration of compounds. Changes in body weight, cumulative food intake, and fat and lean mass were recorded for up to a two week period.
While compound 18 led to significant glucose lowering in an OGTT studies when dosed acutely, it remained unclear if the mechanism of TGR5-stimulated GLP-1 secretion desensitizes over time. […] In order to determine if desensitization occurs, as well as explore the potential for changes in body weight by compound 18, we obtained DIO C57BL/6 mice and randomly assigned them into either an acute or chronic study. For the acute experiment, overnight-fasted DIO mice were dosed with vehicle or 60 mg/kg of compound 18 the next morning, and an OGTT was performed 30 minutes after compound dosing using 2 g/kg glucose. For the chronic study, DIO mice were orally dosed with vehicle or 60 mg/kg compound 18 once a day for two weeks; body weights and food intake were measured during the treatment period. After two weeks, mice were over-night fasted, dosed the following morning, and subjected to an OGTT 30 minutes after compound dosing.
Diet-induced obese (DIO) C57BL/6 mice were either dosed acutely or chronically for two weeks with vehicle (white circles, white bars) or compound 18 at 60 mg/kg (black triangles, black bars). An OGTT on over-night fasted DIO mice was performed after either a single dose (A, acute) or after two weeks of dosing (B, chronic), using 2 g/kg glucose dosed 30 minutes after compound dosing. Changes in body weights (C) and cumulative food intake (D) were recorded for the two week period. n = 8; mean +/- SEM. * P < 0.01.

GPR119 = biological target: T2, GPR119 (Homo sapiens, UniProt Q8TDV5); assay: Selectivity: enteroendocrine GPCR GPR119
T2 sequence (Q8TDV5 1-335): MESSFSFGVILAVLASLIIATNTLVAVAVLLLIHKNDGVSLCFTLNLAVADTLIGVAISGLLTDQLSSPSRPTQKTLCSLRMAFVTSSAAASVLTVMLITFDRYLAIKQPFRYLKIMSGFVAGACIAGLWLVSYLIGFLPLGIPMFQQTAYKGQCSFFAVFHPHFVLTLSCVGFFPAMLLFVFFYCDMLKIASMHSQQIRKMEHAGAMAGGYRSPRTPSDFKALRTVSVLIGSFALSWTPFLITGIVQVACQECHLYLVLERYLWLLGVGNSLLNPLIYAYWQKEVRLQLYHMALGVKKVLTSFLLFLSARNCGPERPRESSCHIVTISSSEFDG

GPR40 = GPR40 (Homo sapiens, UniProt O14842); assay: Selectivity: enteroendocrine GPCR GPR40
Sequence of GPR40 (O14842 whole entry, species assumed): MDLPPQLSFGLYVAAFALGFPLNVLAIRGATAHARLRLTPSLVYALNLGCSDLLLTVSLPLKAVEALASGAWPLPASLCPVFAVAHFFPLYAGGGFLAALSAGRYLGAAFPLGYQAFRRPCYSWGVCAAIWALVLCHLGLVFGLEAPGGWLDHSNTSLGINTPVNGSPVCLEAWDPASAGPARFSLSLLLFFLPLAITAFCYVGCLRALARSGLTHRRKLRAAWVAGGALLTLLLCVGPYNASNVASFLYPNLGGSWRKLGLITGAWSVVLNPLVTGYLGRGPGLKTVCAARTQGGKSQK

CC(=O)N1CCC(C(C)N(C(=O)COc2cccc3sc4nc(C)cn4c23)c2ccc(F)cc2)CC1 (stereo not shown) [compound 18]
EC50 (FXR): > 125 µM
food intake (DIO C57BL/6 mice): no change in food intake
reduction in body weight gain versus vehicle (DIO C57BL/6 mice): 1.4 g
lean mass (DIO C57BL/6 mice; P = 0.995): no difference in lean mass
gain in fat mass (DIO C57BL/6 mice; p = 0.067): trend towards reduced gain in fat mass
EC50 (GPR119): > 125 µM
EC50 (GPR40): > 125 µM

— article PMC4551797 (PLoS ONE, 2015)
